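1) Cells in 96-well plates. 2) Compound, 48 h, 5 concentrations. 3) Linear interpolation between surrounding doses. 4) Unreached endpoint = highest concentration. At the GI50, growth is halved.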 Activity calls are given as the source filed them. Rule as the data show it: active = GI50 up to about 1.1 µM and inactive = higher.
What was measured:
Experiment in all cases: growth of human tumour cells (NCI), 48 h
NCI-H460 = system: NCI-H460
U-251 = system: U-251
SNB-19 = system: SNB-19
MOLT-4 = system: MOLT-4
CCRF-CEM = system: CCRF-CEM
SW-620 = system: SW-620
LOX IMVI = system: LOX IMVI
SF-295 = system: SF-295
SK-MEL-28 = system: SK-MEL-28
NCI-H522 = system: NCI-H522
EKVX = system: EKVX
OVCAR-5 = system: OVCAR-5
OVCAR-8 = system: OVCAR-8
HCT-116 = system: HCT-116
M14 = system: M14
UACC-257 = system: UACC-257
NCI-H23 = system: NCI-H23
K562 = system: K562
SK-MEL-2 = system: SK-MEL-2

Measured: GI50

O=C1C=CC2(CCCCCCC2=O)CC1 (centres undefined)
inactive: NCI-H460 > 100 µM | U-251 > 100 µM | SNB-19 > 100 µM | MOLT-4 > 100 µM | CCRF-CEM > 100 µM | SW-620 > 100 µM | LOX IMVI 44.9 µM | SF-295 > 100 µM | SK-MEL-28 > 100 µM | NCI-H522 > 100 µM | EKVX > 100 µM | OVCAR-5 > 100 µM | OVCAR-8 > 100 µM | HCT-116 > 100 µM | M14 > 100 µM | UACC-257 > 100 µM

CCOC(=O)C(CCC(N)=O)(CCC(=O)OC)C(=O)OCC
inactive: NCI-H460 > 100 µM | U-251 > 100 µM | SNB-19 > 100 µM | NCI-H23 > 100 µM | MOLT-4 > 100 µM | K562 > 100 µM | SW-620 > 100 µM | LOX IMVI > 100 µM | SF-295 > 100 µM | SK-MEL-28 > 100 µM | NCI-H522 > 100 µM | EKVX > 100 µM | OVCAR-5 > 100 µM | OVCAR-8 > 100 µM | HCT-116 > 100 µM | M14 > 100 µM | UACC-257 > 100 µM

CCOC(=O)NC(=O)c1cn(CCN2CCN(C(=O)CNC(=O)CNC(=O)Cn3cc(C(=O)NC(=O)OCC)c(=O)[nH]c3=O)CC2)c(=O)[nH]c1=O
inactive: NCI-H460 > 100 µM | U-251 > 100 µM | SNB-19 > 100 µM | NCI-H23 > 100 µM | MOLT-4 > 100 µM | K562 > 100 µM | CCRF-CEM > 100 µM | SW-620 > 100 µM | LOX IMVI > 100 µM | SF-295 > 100 µM | SK-MEL-28 > 100 µM | NCI-H522 > 100 µM | SK-MEL-2 > 100 µM | OVCAR-5 > 100 µM | OVCAR-8 > 100 µM | HCT-116 > 100 µM | M14 > 100 µM | UACC-257 > 100 µM

Cc1ccc(C)c(NC(=O)CC/C(=N\NC(=O)c2c(O)ccc3ccccc23)C(C)C(=O)c2ccc(O)cc2)c1 (centres undefined)
inactive: NCI-H460 21.7 µM | U-251 31.8 µM | SNB-19 11.6 µM | NCI-H23 31.1 µM | MOLT-4 27.2 µM | K562 32.8 µM | CCRF-CEM 15.2 µM | SW-620 41.3 µM | LOX IMVI 18.7 µM | SF-295 37.2 µM | SK-MEL-28 49 µM | NCI-H522 19.9 µM | SK-MEL-2 24.7 µM | OVCAR-5 37.5 µM | OVCAR-8 26.1 µM | HCT-116 57.4 µM | M14 16.9 µM | UACC-257 31.9 µM

COc1cc(C[P+](c2ccccc2)(c2ccccc2)c2ccccc2)cc(OC)c1OC
inactive: NCI-H460 > 100 µM | U-251 > 100 µM | SNB-19 > 100 µM | NCI-H23 > 100 µM | K562 > 100 µM | CCRF-CEM > 100 µM | SW-620 > 100 µM | LOX IMVI > 100 µM | SF-295 > 100 µM | SK-MEL-28 > 100 µM | NCI-H522 > 100 µM | SK-MEL-2 > 100 µM | EKVX > 100 µM | OVCAR-5 > 100 µM | OVCAR-8 > 100 µM | HCT-116 > 100 µM | M14 > 100 µM | UACC-257 > 100 µM

O=C(O)CCNS(=O)(=O)c1ccc(NC(=O)c2ccccc2)cc1
inactive: NCI-H460 > 100 µM | U-251 > 100 µM | SNB-19 > 100 µM | NCI-H23 > 100 µM | MOLT-4 > 100 µM | K562 > 100 µM | CCRF-CEM > 100 µM | SW-620 > 100 µM | LOX IMVI > 100 µM | SF-295 > 100 µM | SK-MEL-28 > 100 µM | NCI-H522 > 100 µM | SK-MEL-2 > 100 µM | EKVX > 100 µM | OVCAR-5 > 100 µM | OVCAR-8 > 100 µM | M14 > 100 µM | UACC-257 > 100 µM

O=C1C2CC=CCC2C(=O)C12CCc1ccccc12 (centres undefined)
inactive: NCI-H460 > 100 µM | U-251 > 100 µM | NCI-H23 > 100 µM | K562 > 100 µM | CCRF-CEM > 100 µM | SW-620 > 100 µM | LOX IMVI > 100 µM | SF-295 > 100 µM | SK-MEL-28 > 100 µM | EKVX > 100 µM | OVCAR-8 > 100 µM | M14 > 100 µM

CN(C)c1ccc(/C=C(/C(=O)O)c2csc(-c3nc(/C(=C\c4ccc(N(C)C)cc4)C(=O)O)cs3)n2)cc1
inactive: NCI-H460 > 100 µM | U-251 > 100 µM | NCI-H23 > 100 µM | MOLT-4 58.6 µM | K562 41.7 µM | CCRF-CEM 16.7 µM | SW-620 > 100 µM | LOX IMVI 73.8 µM | SF-295 > 100 µM | SK-MEL-28 > 100 µM | SK-MEL-2 > 100 µM | EKVX > 100 µM | OVCAR-5 > 100 µM | OVCAR-8 > 100 µM | HCT-116 > 100 µM | M14 > 100 µM | UACC-257 > 100 µM

Source: ChEMBL document CHEMBL1201862, “PubChem BioAssay data set” (2004)
